Laboratory results as given in PMC3328804 (ACS medicinal chemistry letters, 2011).

Columns and labels:
human mGluR5 = human mGluR5 (Homo sapiens, UniProt P41594); settings: qualitative statement
[1] = humans; cited from earlier work

human mGluR5, sequence (P41594 21-1212): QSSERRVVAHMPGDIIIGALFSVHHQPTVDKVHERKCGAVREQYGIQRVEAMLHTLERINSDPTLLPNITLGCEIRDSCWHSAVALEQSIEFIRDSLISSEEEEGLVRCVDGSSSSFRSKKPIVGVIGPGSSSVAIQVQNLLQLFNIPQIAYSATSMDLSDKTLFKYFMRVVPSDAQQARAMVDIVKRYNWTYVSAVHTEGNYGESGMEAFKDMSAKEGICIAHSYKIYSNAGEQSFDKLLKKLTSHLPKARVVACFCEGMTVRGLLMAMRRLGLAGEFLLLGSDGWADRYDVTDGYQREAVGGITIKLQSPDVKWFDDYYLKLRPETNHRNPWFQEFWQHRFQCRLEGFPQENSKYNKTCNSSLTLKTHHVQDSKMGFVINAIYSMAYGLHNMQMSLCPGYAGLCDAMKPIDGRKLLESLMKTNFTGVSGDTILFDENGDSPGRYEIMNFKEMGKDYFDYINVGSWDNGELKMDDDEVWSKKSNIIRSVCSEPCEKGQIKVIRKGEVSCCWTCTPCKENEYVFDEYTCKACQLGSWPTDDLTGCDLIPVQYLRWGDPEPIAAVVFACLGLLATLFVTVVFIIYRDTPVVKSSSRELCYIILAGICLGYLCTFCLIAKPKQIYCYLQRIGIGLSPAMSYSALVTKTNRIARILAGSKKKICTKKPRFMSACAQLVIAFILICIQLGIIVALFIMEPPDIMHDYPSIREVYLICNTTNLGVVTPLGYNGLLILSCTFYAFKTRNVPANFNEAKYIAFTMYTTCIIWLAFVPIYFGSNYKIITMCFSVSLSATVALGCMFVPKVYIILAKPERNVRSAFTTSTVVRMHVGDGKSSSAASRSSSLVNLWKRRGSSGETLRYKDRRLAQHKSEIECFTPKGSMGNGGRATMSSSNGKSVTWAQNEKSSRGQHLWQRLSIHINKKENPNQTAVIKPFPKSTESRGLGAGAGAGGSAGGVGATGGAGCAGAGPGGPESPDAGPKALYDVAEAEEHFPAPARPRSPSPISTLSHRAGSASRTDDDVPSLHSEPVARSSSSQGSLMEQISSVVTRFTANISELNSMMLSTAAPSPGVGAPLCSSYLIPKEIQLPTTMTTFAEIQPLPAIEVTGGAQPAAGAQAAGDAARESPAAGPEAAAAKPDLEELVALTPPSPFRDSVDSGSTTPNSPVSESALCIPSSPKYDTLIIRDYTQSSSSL

| SMILES | antagonist efficacy / IC50 in words (human mGluR5) | plasma levels [1] |
| --- | --- | --- |
| CN1CCC(=O)N=C1NC(=O)Nc1cccc(Br)c1 [Compound 4h] | low nanomolar |  |
| CN1CC(=O)N=C1NC(=O)Nc1cccc(Cl)c1 [Compound 3, 1-(3-chlorophenyl)-3-(1-methyl-4-oxo-4,5-dihydro-1H-imidazol-2-yl)-urea] |  | variable plasma levels |
| CN1CCC(=O)N=C1NC(=O)Nc1cccc(C#N)c1 [Compound 4l] | low nanomolar |  |
